Experimental data taken from patent US20070161550A1, “Antiviral compositions which inhibit paramyxovirus infection” (priority 2003, published 2007).

What was measured:
RSV A2 [1] = experiment: Inhibition of virus infectivity in vivo, lung virus titers in BALB/c mice
Method: Inhibition of virus infectivity in vivo. […] All administrations were intranasal (0.05 ml) and performed under injected anesthesia (60 mg ketamine/kg and 2.5 mg xylazine/kg (The Butler Co.; Dublin Ohio)). Four days later the lungs were removed, homogenized, clarified by low speed centrifugation, snap frozen, and stored at −70° C. until plaque assays were performed using HEp-2 cell monolayers (Hancock et al. 1996). All animals were housed in a facility accredited by the American Association for Accreditation of Laboratory Animal Care.
(§1) Plaque assay. Virus plaques were visualized as previously described (Hancock et al. 1996) using anti-F protein (L4) mAb (Paradiso et al., 1991; Walsh and Hruska, 1983). Thereafter, cells were rinsed with blotto blocking agent (PBS, 5% powdered milk) and incubated with horseradish peroxidase-conjugated goat anti-mouse IgG (Kirkegaard and Perry Laboratories, Inc.; Gaithersburg, Md.). Bound antibody was detected using 0.05% 4-chloro-1-naphtol containing 0.1% H2O2 in PBS. After enumeration of plaques, the mean percent infectivity (±1 standard deviation of triplicate wells) was calculated relative to monolayers exposed to virus in culture medium alone without chemokine or anti-chemokine receptor antibody.

HEp-2 cells = experiment: Binding of biotinylated CCL5 peptides to HEp-2 cell monolayers (ELISA); parameters: species or system human; conditions: FIG. 3, viable HEp-2 cells at 4° C.
Method: Interaction of CCL5 peptides with HEp-2 cells. An ELISA was used to assess the relative binding of synthetic peptides to HEp-2 cell monolayers. In brief, 96-well plates (Falcon) were seeded with 3×10^4 HEp-2 cells per well in 0.2 ml of complete medium. After overnight incubation (37° C., 5% CO2), the monolayers were cooled on ice for approximately 15 minutes. The biotinylated peptides were added to duplicate wells in ascending doses from 0.49 μg to 500 μg per ml DMEM (supplemented with 1% FBS, 2% penicillin/streptomycin, and 2 mM L-glutamine) and incubated at 4° C. for 1 hour. The monolayers were then fixed (20 minutes at RT) with 80% methanol (J T Baker; Phillipsburg, N.J.). […] Thereafter, the monolayers were incubated (1 hour at RT) with streptavidin-HRP (Zymed; San Francisco, Calif.). The wells were developed with TMB One-Step Substrate Solution (DAKO; Carpinteria, Calif.). Optical density was determined (450 nm, reference at 550 nm) with a Molecular Devices Versamax microplate reader (Sunnyvale, Calif.).

chemotaxis = conditions: cited from earlier work
rA2 cpts248/404ΔSH = experiment: Inhibition of infectivity of mutant RSV strain lacking SH protein, HEp-2 plaque assay; format: cell-based, respiratory syncytial virus (RSV); conditions: strain 248/404ΔSH, 10 μg/ml, treated 1 h before infection, 5 days
Method: (§2) Virus stocks. Wild type RSV strains A2 and B1 (Wright et al., 1973) and mutant RSV strains cpts248/404 (Ackerlind et al., 1988), rA2 cpts248/404ASH (Crowe et al., 1994) and cp32/D1, deficient in SH and G genes (nucleotides 4064-5462) (Karron et al., 1997), were propagated as previously described (Hancock et al., 1996) in HEp-2 cells (ATCC CCL 23) cultured in complete medium (DMEM supplemented with 2 mM L-glutamine, 2% penicillin/streptomycin and 10% (V/V) FBS, 37° C., 5% CO2). The cp32/D1 mutant was isolated from the B1 strain using methodologies previously described for cp52 (Crowe et al., 1996; Karron et al., 1997). A recombinant RSV, (rA2 cpΔG118) genetically truncated at amino acid 117 of G protein was also used in the investigation. All virus stocks were prepared from cell lysates clarified by low speed (200 g) centrifugation 15 minutes at 4° C.
(§3) Inhibition of virus infectivity in vitro. HEp-2 cell monolayers were grown in 96-well tissue culture plates (Falcon, Becton Dickson and Co.; Franklin Lakes, N.J.) with complete medium. The monolayers were pre-treated for 1 hour at 4° C. or 37° C. in triplicate wells with the indicated amounts of recombinant chemokine or anti-chemokine receptor antibody. After removal of chemokine or antibody, the monolayers were infected 1 hour at the same temperature with the denoted wild type or mutant RSV strain and then overlaid with 2% Sephadex (Amersham Biosciences; Piscataway, N.J.). Anti-viral activity was also assessed 1 hour after the cells were infected, or following simultaneous exposure of the monolayers to virus in a 1:1 mixture with the indicated doses of chemokines or CCL5 peptides. […]
(§4) Plaque assay. […] Bound antibody was detected using 0.05% 4-chloro-1-naphtol containing 0.1% H2O2 in PBS. After enumeration of plaques, the mean percent infectivity (±1 standard deviation of triplicate wells) was calculated relative to monolayers exposed to virus in culture medium alone without chemokine or anti-chemokine receptor antibody. […]

RSV = experiment: Inhibition of RSV infection of A549 monolayers; format: cell-based, respiratory syncytial virus (RSV); conditions: prior treatment of A549 monolayers; data not shown
RSV B1 = experiment: Inhibition of infectivity of wild type RSV B1, HEp-2 plaque assay; format: cell-based, respiratory syncytial virus (RSV); conditions: Table 15 Experiment 2; strain B1; 10 μg/ml, treated 1 h before infection; 5 days
Method: as §2, with “All virus stocks were prepared from cell lysates clarified by low speed (200 g) centrifugation 15 minutes at 4° C.” left out
(§5) Inhibition of virus infectivity in vitro. […] Anti-viral activity was also assessed 1 hour after the cells were infected, or following simultaneous exposure of the monolayers to virus in a 1:1 mixture with the indicated doses of chemokines or CCL5 peptides. […]
(§6) Plaque assay. […] Bound antibody was detected using 0.05% 4-chloro-1-naphtol containing 0.1% H2O2 in PBS. After enumeration of plaques, the mean percent infectivity (±1 standard deviation of triplicate wells) was calculated relative to monolayers exposed to virus in culture medium alone without chemokine or anti-chemokine receptor antibody.

cp32/D1 = experiment: Inhibition of infectivity of mutant RSV strain lacking SH and G proteins, HEp-2 plaque assay; format: cell-based, respiratory syncytial virus (RSV); conditions: Table 15 Experiment 2, 10 μg/ml, treated 1 h before infection, 5 days
Method: as §2, with “All virus stocks were prepared from cell lysates clarified by low speed (200 g) centrifugation 15 minutes at 4° C.” left out
as §5, §4

cpts248/404 = experiment: Inhibition of infectivity of mutant RSV strain 248/404, HEp-2 plaque assay; format: cell-based, respiratory syncytial virus (RSV); conditions: treated 1 h before infection, 5 days
Method: as §2, §3, §6

RSV A2 [2] = experiment: Inhibition of RSV infectivity in vitro, plaque assay on HEp-2 cell monolayers; format: cell-based, respiratory syncytial virus (RSV)
Method: (§7) Inhibition of virus infectivity in vitro. HEp-2 cell monolayers were grown in 96-well tissue culture plates (Falcon, Becton Dickson and Co.; Franklin Lakes, N.J.) with complete medium. The monolayers were pre-treated for 1 hour at 4° C. or 37° C. in triplicate wells with the indicated amounts of recombinant chemokine or anti-chemokine receptor antibody. After removal of chemokine or antibody, the monolayers were infected 1 hour at the same temperature with the denoted wild type or mutant RSV strain and then overlaid with 2% Sephadex (Amersham Biosciences; Piscataway, N.J.). Anti-viral activity was also assessed 1 hour after the cells were infected, or following simultaneous exposure of the monolayers to virus in a 1:1 mixture with the indicated doses of chemokines or CCL5 peptides. The inhibitory properties of the anti-chemokine receptor antibodies were tested alone or in combination at doses ranging from 5 to 100 μg/ml culture medium.
as §1

rA2cpΔ118 = experiment: Inhibition of infectivity of RSV with truncated G protein, HEp-2 plaque assay; format: cell-based, respiratory syncytial virus (RSV); conditions: Table 15 Experiment 1; strain rA2cpΔ118; 10 μg/ml, treated 1 h before infection; 5 days
Method: as §2, with “All virus stocks were prepared from cell lysates clarified by low speed (200 g) centrifugation 15 minutes at 4° C.” left out
as §5, §4

cp-RSV = experiment: Inhibition of infectivity of cp-RSV, HEp-2 plaque assay; format: cell-based, respiratory syncytial virus (RSV); conditions: Table 15 Experiment 1; strain cp-RSV; 10 μg/ml, treated 1 h before infection
Method: as §7, §6

[3] = Table 15 Experiment 1, 10 μg/ml
[4] = Table 15 Experiment 1, strain A2, 10 μg/ml, treated 1 h before infection, 3 days

## SPYSSDTTPCCFAYI (listed as Homo sapiens) [Peptide 1, CCL5 amino acids 1-15]
RSV A2 [1]; 300 μg or more, five experiments
  average reduction in virus load: 2.4 log10
RSV A2 [1]; BALB/c mouse model
  inhibition of RSV infection in vivo (in words): most inhibitory in vivo
RSV A2 [1]; Table 16 Exp. 1, 125 μg/dose, simultaneously admixed with RSV A2, four days
  RSV/Gram Lung Tissue (log10): 4.6 ± 0.2 log10
RSV A2 [1]; Table 16 Exp. 1, 250 μg/dose, simultaneously admixed with RSV A2, four days
  RSV/Gram Lung Tissue (log10): 4.3 ± 0.2 log10
RSV A2 [1]; Table 16 Exp. 1, 500 μg/dose, simultaneously admixed with RSV A2, intranasal, lungs four days later
  RSV/Gram Lung Tissue (log10): 1.8 ± 0.1 log10
RSV A2 [1]; Table 16 Exp. 2, 300 μg/dose, simultaneously admixed with RSV A2, four days
  RSV/Gram Lung Tissue (log10): 4.0 ± 0.1 log10
RSV A2 [1]; Table 16 Exp. 2, 400 μg/dose, simultaneously admixed with RSV A2, four days
  RSV/Gram Lung Tissue (log10): 3.8 ± 0.1 log10
RSV A2 [1]; Table 16 Exp. 2, 500 μg/dose, simultaneously admixed with RSV A2, four days
  RSV/Gram Lung Tissue (log10): 3.1 ± 0.1 log10
RSV A2 [1]; Table 17, 500 μg, 1 hour after infection (Post), four days
  RSV/Gram Lung Tissue (log10): 5.3 ± 0.2 log10
RSV A2 [1]; Table 17, 500 μg, 1 hour before infection (Pre), four days
  RSV/Gram Lung Tissue (log10): 3.5 ± 0.6 log10
RSV A2 [1]; Table 17, 500 μg, Simultaneous with RSV A2, four days
  RSV/Gram Lung Tissue (log10): 1.9 ± 0.2 log10
RSV A2 [1]; administered 1 hour before infection
  virus load diminished, fold: more than 50 fold
HEp-2 cells
  binding to the epithelial cell monolayer (in words): readily bound to the epithelial cell monolayer

## Ac-YFYEKIHARPLPRAIYAFC-NH2 [SEQ ID NO:19, retroinverted peptide of CCL5 residues 11-29 in reverse order]
chemotaxis
  effect on chemotaxis (in words): antagonized chemotaxis

## CCL5: recombinant human chemokine CCL5 (RANTES), full length polypeptide of SEQ ID NO:1
rA2 cpts248/404ΔSH; Table 15 Experiment 1
  Percent Infectivity: 34%
rA2 cpts248/404ΔSH; Table 15 Experiment 2
  Percent Infectivity: 13%
RSV
  inhibition of infection with RSV (in words): inhibited infection with RSV
RSV B1
  Percent Infectivity: 24%
cp32/D1
  Percent Infectivity: 41%
cpts248/404; [3]
  Percent Infectivity: 28%
cpts248/404; Table 15 Experiment 2, 10 μg/ml
  Percent Infectivity: 25%
RSV A2 [2]; Table 10, 1 μg/ml, exposed 1 hour before infection, plaques after 3 days
  Percent Infectivity: 73.6 ± 20.6%
RSV A2 [2]; Table 10, 5 μg/ml, exposed 1 hour before infection, plaques after 3 days
  Percent Infectivity: 25.0 ± 7.2%
RSV A2 [2]; Table 10, 10 μg/ml, exposed 1 hour before infection, plaques after 3 days, relative to control wells (100%)
  Percent Infectivity: 29.2 ± 16.7%
RSV A2 [2]; Table 10, 10 μg/ml, exposed 1 hour before infection, plaques after 3 days, relative to control wells (100%), listed as rCCL5
  Percent Infectivity: approximately 30%
RSV A2 [2]; Table 11, 1 μg/ml, exposed 1 hour before infection, plaques after 3 days
  Percent Infectivity: 101.0 ± 4.0%
RSV A2 [2]; Table 11, 5 μg/ml, exposed 1 hour before infection, plaques after 3 days
  Percent Infectivity: 42.0 ± 3.0%
RSV A2 [2]; Table 11, 10 μg/ml, exposed 1 hour before infection, plaques after 3 days
  Percent Infectivity: 16.0 ± 8.0%
RSV A2 [2]; Table 11, 10 μg/ml, exposed 1 hour before infection, plaques after 3 days, listed as rCCL5
  Percent Infectivity: ~20%
RSV A2 [2]; Table 12, 10 μg/ml, 1 hour after removal of RSV A2 (POST)
  Percent Infectivity: 101 ± 12%
RSV A2 [2]; Table 12, 10 μg/ml, 1 hour prior to infection (PRE)
  Percent Infectivity: 22 ± 11%
RSV A2 [2]; Table 13, 10 μg/ml, 1 hour prior to infection (PRE)
  Percent Infectivity: 17
RSV A2 [2]; Table 13, 10 μg/ml, CCL5 denatured by heat (HEAT)
  Percent Infectivity: 75
RSV A2 [2]; Table 13, 10 μg/ml, simultaneously admixed with RSV (SIM)
  Percent Infectivity: 33
RSV A2 [2]; Table 14, 5 μg, pre-treated 1 hour at 4° C.
  Percent Infectivity: 37%
RSV A2 [2]; Table 14, 5 μg, pre-treated 1 hour at 37° C.
  Percent Infectivity: 41%
RSV A2 [2]; Table 14, 10 μg, pre-treated 1 hour at 4° C.
  Percent Infectivity: 23%
RSV A2 [2]; Table 14, 10 μg, pre-treated 1 hour at 37° C.
  Percent Infectivity: 4%
RSV A2 [2]; Table 14, 20 μg, pre-treated 1 hour at 4° C.
  Percent Infectivity: 14%
RSV A2 [2]; Table 14, 20 μg, pre-treated 1 hour at 4° C., listed as rCCL5
  Percent Infectivity: approximately 14%
RSV A2 [2]; Table 14, 20 μg, pre-treated 1 hour at 37° C.
  Percent Infectivity: 16%
RSV A2 [2]; [4]
  Percent Infectivity: 33%
RSV A2 [2]; Table 15 Experiment 2, strain A2, 10 μg/ml, treated 1 h before infection, 3 days
  Percent Infectivity: 28%
RSV A2 [2]; prior exposure (1 hour) of HEp-2 cell monolayers, read-out: median inhibitory concentration (IC50)
  IC50: 726 nM
rA2cpΔ118
  Percent Infectivity: 26%
HEp-2 cells
  binding to the epithelial cell monolayer (in words): readily bound to the epithelial cell monolayer
cp-RSV
  Percent Infectivity: 64%

B1: met-CCL5: CCL5 of SEQ ID NO:1 with a methionine NH2-terminal to Ser1; inactive as chemokine agonist (protein, listed as Homo sapiens)
chain: MSPYSSDTTPCCFAYIARPLPRAHIKEYFYTSGKCSNPAVVFVTRKNRQVCANPEKKWVREYINSLEMS
modifications: N-terminal methionine
rA2 cpts248/404ΔSH; Table 15 Experiment 1
  Percent Infectivity: 32%
cpts248/404; [3]
  Percent Infectivity: 26%
RSV A2 [2]; FIG. 1, 1.25 μg met-CCL5/ml, prior treatment
  infectivity, percent of control cells: approximately 80%
RSV A2 [2]; FIG. 1, 20 μg met-CCL5/ml, pre-treated one hour before infection
  infectivity, percent of control cells: approximately 25%
RSV A2 [2]; FIG. 1, doses of 0.313 or 0.156 μg met-CCL5/ml
  inhibition of infectivity (in words): not inhibitory
RSV A2 [2]; [4]
  Percent Infectivity: 31%
rA2cpΔ118
  Percent Infectivity: 41%
cp-RSV
  Percent Infectivity: 64%
